Results as given in BigSolDB 2.1.

Nc1cccc(C(=O)O)c1
solubility (mole fraction)
Details | 283.15 K | 288.15 K | 293.15 K | 298.15 K | 303.15 K | 308.15 K | 313.15 K | 318.15 K | 323.15 K
in 1,4-dioxane | – | 0.0319 | 0.035 | 0.0394 | 0.042 | 0.0469 | 0.0549 | 0.0627 | 0.0709
in acetone | 0.0289 | 0.0295 | 0.0304 | 0.0325 | 0.0375 | 0.0414 | 0.0455 | 0.052 | 0.0601
in acetonitrile | 0.00192 | 0.00225 | 0.00264 | 0.00313 | 0.00358 | 0.00452 | 0.00561 | 0.00664 | 0.00765
in ethanol | 0.00821 | 0.00955 | 0.0107 | 0.0117 | 0.0137 | 0.0154 | 0.0182 | 0.0218 | 0.0241
in isobutanol | 0.00506 | 0.00542 | 0.00599 | 0.00683 | 0.00796 | 0.00946 | 0.0113 | 0.0131 | 0.0158
in isopropanol | 0.00638 | 0.00712 | 0.00801 | 0.00943 | 0.0112 | 0.0135 | 0.0165 | 0.0204 | 0.023
in isopropyl acetate | 0.00459 | 0.00495 | 0.00526 | 0.00591 | 0.00674 | 0.00765 | 0.00917 | 0.0113 | 0.0135
in methanol | 0.012 | 0.0128 | 0.0139 | 0.0145 | 0.0166 | 0.0187 | 0.0219 | 0.0254 | 0.0296
in methyl acetate | 0.00731 | 0.00776 | 0.00841 | 0.00918 | 0.0108 | 0.0128 | 0.0149 | 0.0173 | 0.0203
in n-butanol | 0.00532 | 0.00595 | 0.00682 | 0.00768 | 0.00934 | 0.0117 | 0.0134 | 0.0156 | 0.0175
in n-propanol | 0.00568 | 0.00675 | 0.00804 | 0.00911 | 0.0107 | 0.0126 | 0.014 | 0.016 | 0.019
in water | 0.000506 | 0.000628 | 0.000725 | 0.000804 | 0.000976 | 0.00119 | 0.00135 | 0.00153 | 0.00184
